Results reported in US10556860B2, “hTERT modulators and methods of use” (Arizona Board of Regents on Behalf of the University of …, priority 2015, dated 2020).
Entries after “also recorded” stand apart in the source; their conditions may differ.

Experiments:
[1] = tested on: hTERT under the control of the CMV promoter; experiment: hTERT transcription in MCF7 cells overexpressing hTERT under CMV promoter; format: cell-based, human; conditions: MCF7 cell line transfected with plasmid overexpressing hTERT (CMV promoter)
Experimental: qPCR. MCF7 and melanoma cells were treated with GTC365 and BRACO-19 for 72 h. Total RNA was extracted using an RNeasy mini-prep kit (Qiagen) and quantitated by measuring absorbance at 260 nm. cDNA was synthesized using a Takara PrimeScript™ RT Reagent Kit with gDNA eraser and then used as a template for qPCR. The qPCR was performed using Kapa Probe Fast qPCR Master Mix with ABI Taqman probes of hTERT (Hs00972656_m1), BCL2 (HS00608023_m1, FAM-labeled) or MYC (Hs00153408_m1), and GAPDH (Hs02758991_g1, VIC-labeled). The Ct values were measured by running Rotor-Gene Q, and the relative quantity of hTERT, BCL2, and MYC mRNA was obtained compared to GAPDH as an internal control.
Establishment of stable cell lines overexpressing hTERT. The pCDNA-3XHA-hTERT plasmid containing hTERT driven by theCMV promoter was obtained from Addgene (ID: 51637) deposited by Dr. Steven Artandi. MCF7 cells in a 24-well plate were transfected with this plasmid (250 ng) using FuGENE HD transfection reagent for24 h. Cells were treated with several concentrations of G418 (0.1-1 mg/mL) and an antibiotic for colony selection for 4 weeks, and thenone colony was selected for further culture. […]

[2] = tested on: normal human melanocytes (NHM-002); experiment: Viability of normal human melanocytes; format: cell-based; conditions: 1.25, 2.5 and 5 μM, 72 h
Experimental: FIGS. 13A-13C are a set of graphs showingselective reduction in viability (A) and hTERT expression (B) in melanoma cells carrying hTERT core promotor mutations. NHM-002 (normal human melanocytes) and a G124A mutant cell line were treated with vehicle, 1.25, 2.5, and 5 μM GTC365 for 72 h. Viability was reduced in hTERT mutant melanoma cells by 50% (left). […] (C) Differential response to GTC365 in WT and promoter mutant cell lines.
Next, to assess the selectivity of GTC365 for hTERT-dependent cancer cells relative to normal precursorcells, we compared the effects of a range of […] on viability at 72 h in normal humanmelanocytes (NHM-002) relative to those of UACC-903, aG124A mutant (FIG. 13A). […] To confirm that the reduction in cell viability was aresult of hTERT downregulation, we performed reverse transcription and qPCR to measure the mRNA level of hTERT expression in cells treated with DMSO or 5 μMGTC365. hTERT expression was reduced by 41% in themelanoma cell line after 72 h but was undetectable in normalmelanocytes, even in the absence of GTC365 (FIG. 13B). Finally, tobroadly assess the selectivity of GTC365 for hTERT promotermutant versus WT cells, we conducted a 6-point 72 h MTSproliferation assay to determine EC50s in 14 additional melanoma cell lines with characterized TERT promoter status([…]) (FIG. 13C). […]

[3] = tested on: G138/139A mutant hTERT G-quadruplex; experiment: CD melting (Tm), G138/139A mutant; format: binding, human; conditions: 2 equiv
Experimental: Circular dichroism. Oligomers of WT, G124A, G124/125A, G138/139A and G146A were synthesized and HPSF-purified by MGW Operon, Inc. For CD analysis, oligomers (5 μM) in a buffer containing 10 mM Tris-HCl (pH 7.5) and 140 mM KCl were annealed. For the CD analysis of the complex of oligomers and compounds, oligomers (5 μM) in a buffer containing 10 mM Tris-HCl (pH 7.5) and 5 mM KCl for GTC365 or 1 mM KCl for BRACO-19 were annealed. Oligomers and GTC365 or BRACO-19 were incubated overnight at room temperature. For the full-length of C-rich strand, the oligomer in a buffer of 10 mM Na cacodylate (pH 6.6) was annealed and then incubated with GTC365 overnight. CD analysis was conducted on a Jasco 810 spectropolarimeter (Jasco, Easton, Md.) using a quartz cell with 1 mm of path length, 1 nm of band width, and 1 s of response time for spectra at 20° C. Melting curves for the determination of Tm were obtained by recording ellipticity at 262 nm with increasing temperatures from 25° C. to 95° C. at a rate of 1.6° C./min. Tm of the C-rich strand with GTC365 was obtained from the CD signal at 286 nm within 10-60° C.
CD and DMS footprinting analyses were conducted to characterize the binding of GTC365 and BRACO-19 to the 5-12 G-quadruplex. […] To verify the effects of compounds on the thermal stability of the WT and the mutant G-quadruplexes, Tms were determined by CD. […]

[4] = tested on: MCF7 cells; experiment: Senescence β-galactosidase assay; format: cell-based, human; conditions: 0.5 μM, 5-10 days
Experimental: Senescence β-galactosidase assay. A colorimetric β-galactosidase assay was performed. Briefly, compound-treated MCF7 cells were fixed in 2% formaldehyde and 0.2% glutaraldehyde for 5 min at room temperature. Fixed cells were incubated with staining solution containing 40 mM citric acid (pH 6.0), 5 mM potassium ferrocyanide, 5 mM potassium ferricyanide, 150 mM NaCl, and 2 mM MgCl2 and 1 mg/ml X-gal (Fermentas R0401) for 7 h at 37° C. Stained cells were washed with D-PBS and methanol and subsequently dried in air.
Since senescence is one of the outcomes resulting from loss of telomere length, this was measured by the associated overexpression of lysosomal β-galactosidase, which releases indigo (blue dye) from X-gal. In addition, the cell morphology will also be dramatically changed so that cells appear to be flat and enlarged. […] Abnormal phenotypes such as bridges connecting two adjacent cells and multinucleated cells were also observed in GTC365-treated cells. hTERT is known to localize to mitotic spindles and centromeres and regulate the expression of genes involved in heterochromatin maintenance. In addition, there is alteration of expression of some proteins involved in collagen synthesis or tubulin organization by hTERT transfection.

`N=C(N)NCCCS(=O)(=O)Nc1ccc(Nc2c3ccccc3nc3cc([N+](=O)[O-])ccc23)cc1` [GTC365] was tested, and the “effect on hTERT transcription” value [1] was “no effect”, the viability change [2] was “minimal viability change; also recorded: minimal reduction” and the “Tm more increased compared to the WT” value [3] was 6-7 °C. For the same compound, the “senescence-like phenotype (β-galactosidase staining, morphology)” value [4] was “distinct senescence-like phenotype (SLP)”.
